Data published in the NIST ThermoML archive (doi:10.1021/je900210h).
± gives the expanded uncertainty stated by the source.

Settings: Fluid (supercritical or subcritical phases), Coaxial cylinder method

FCC(F)(F)F [1,1,1,2-tetrafluoroethane]
Settings | thermal conductivity [W/m/K]
376.41 K, 4184 kPa | 0.0684 ± 0.0028
376.42 K, 3872 kPa | 0.0315 ± 0.0015
376.44 K, 3783 kPa | 0.0303 ± 0.0015
376.44 K, 4178 kPa | 0.0661 ± 0.0037
376.44 K, 4354 kPa | 0.0663 ± 0.0027
376.46 K, 3783 kPa | 0.0297 ± 0.0015
376.48 K, 3675 kPa | 0.0288 ± 0.0014
376.48 K, 4174 kPa | 0.0639 ± 0.0038
376.5 K, 3593 kPa | 0.0281 ± 0.0014
376.51 K, 2527 kPa | 0.0229 ± 0.0012
376.51 K, 3504 kPa | 0.0275 ± 0.0014
376.51 K, 4168 kPa | 0.0618 ± 0.018
376.52 K, 4404 kPa | 0.0612 ± 0.0024
376.53 K, 3468 kPa | 0.0269 ± 0.0014
376.54 K, 4470 kPa | 0.059 ± 0.003
376.54 K, 4580 kPa | 0.0586 ± 0.0024
376.55 K, 3302 kPa | 0.0263 ± 0.0013
376.55 K, 4165 kPa | 0.0598 ± 0.006
376.56 K, 3210 kPa | 0.0257 ± 0.0029
376.57 K, 4451 kPa | 0.0587 ± 0.0025
376.58 K, 4158 kPa | 0.0579 ± 0.0063
376.59 K, 3210 kPa | 0.0248 ± 0.0013
376.6 K, 3210 kPa | 0.0246 ± 0.003
376.61 K, 3210 kPa | 0.0244 ± 0.0021
376.61 K, 4150 kPa | 0.0562 ± 0.0048
376.65 K, 4147 kPa | 0.0545 ± 0.0048
376.68 K, 4141 kPa | 0.0524 ± 0.0058
376.68 K, 4680 kPa | 0.0583 ± 0.0024
376.69 K, 4140 kPa | 0.0427 ± 0.017
376.73 K, 4100 kPa | 0.0395 ± 0.0044
376.78 K, 4040 kPa | 0.0364 ± 0.0017
376.81 K, 3990 kPa | 0.0346 ± 0.0018
376.82 K, 4117 kPa | 0.047 ± 0.002
376.82 K, 4820 kPa | 0.0577 ± 0.0023
376.82 K, 4860 kPa | 0.0575 ± 0.0023
376.87 K, 3880 kPa | 0.0318 ± 0.0016
376.87 K, 4101 kPa | 0.0452 ± 0.0028
376.87 K, 4504 kPa | 0.0571 ± 0.0023
376.89 K, 4548 kPa | 0.0562 ± 0.0023
376.9 K, 3800 kPa | 0.0304 ± 0.0015
376.92 K, 3740 kPa | 0.0295 ± 0.0014
376.95 K, 3650 kPa | 0.0285 ± 0.0014
376.96 K, 2027 kPa | 0.0218 ± 0.0013
376.98 K, 3510 kPa | 0.0274 ± 0.0014
377.01 K, 4289 kPa | 0.072 ± 0.003
377.01 K, 4294 kPa | 0.0724 ± 0.0029
377.01 K, 4307 kPa | 0.0724 ± 0.0029
377.01 K, 4309 kPa | 0.072 ± 0.003
377.01 K, 4312 kPa | 0.0717 ± 0.0031
377.02 K, 4322 kPa | 0.0706 ± 0.0027
377.02 K, 4332 kPa | 0.0691 ± 0.0027
377.03 K, 4343 kPa | 0.0674 ± 0.0026
377.04 K, 4356 kPa | 0.0661 ± 0.0026
377.05 K, 4380 kPa | 0.0636 ± 0.0025
377.05 K, 4384 kPa | 0.0634 ± 0.0025
377.06 K, 4397 kPa | 0.0625 ± 0.0025
377.06 K, 4417 kPa | 0.0617 ± 0.0025
377.07 K, 4439 kPa | 0.0606 ± 0.0025
377.07 K, 4473 kPa | 0.06 ± 0.002
377.08 K, 4495 kPa | 0.0595 ± 0.0024
377.08 K, 4538 kPa | 0.0587 ± 0.0026
377.17 K, 4275 kPa | 0.0671 ± 0.0043
377.18 K, 4270 kPa | 0.0648 ± 0.0032
377.19 K, 4266 kPa | 0.063 ± 0.003
377.24 K, 4249 kPa | 0.0555 ± 0.0029
377.26 K, 4241 kPa | 0.0529 ± 0.0029
377.27 K, 4235 kPa | 0.0513 ± 0.0028
377.29 K, 4226 kPa | 0.0494 ± 0.0022
377.32 K, 4211 kPa | 0.0466 ± 0.0021
377.36 K, 4613 kPa | 0.0583 ± 0.0024
377.36 K, 4653 kPa | 0.0578 ± 0.0023
377.36 K, 4697 kPa | 0.0578 ± 0.0023
377.36 K, 4760 kPa | 0.0576 ± 0.0023
377.37 K, 4836 kPa | 0.0569 ± 0.0023
377.37 K, 4907 kPa | 0.0562 ± 0.0023
377.51 K, 4164 kPa | 0.0415 ± 0.0019
377.55 K, 4126 kPa | 0.039 ± 0.002
377.58 K, 4079 kPa | 0.0366 ± 0.0018
377.73 K, 4701 kPa | 0.055 ± 0.002
377.83 K, 4369 kPa | 0.0678 ± 0.0026
377.83 K, 4381 kPa | 0.0681 ± 0.0027
377.83 K, 4390 kPa | 0.0681 ± 0.0027
377.83 K, 4400 kPa | 0.0678 ± 0.0027
377.84 K, 4360 kPa | 0.0668 ± 0.0026
377.84 K, 4411 kPa | 0.0668 ± 0.0026
377.84 K, 4420 kPa | 0.0658 ± 0.0026
377.85 K, 4351 kPa | 0.0652 ± 0.0026
377.85 K, 4432 kPa | 0.0652 ± 0.0026
377.85 K, 4441 kPa | 0.064 ± 0.003
377.86 K, 4451 kPa | 0.0631 ± 0.0025
377.86 K, 4460 kPa | 0.0623 ± 0.0025
377.86 K, 4997 kPa | 0.0548 ± 0.0022
